Patent US11419916B2, “Methods and compositions for inducing differentiation of human brown adipocyte progenitors” (Energesis Pharmaceuticals, Inc., priority 2014, dated 2022)
Structures can show the parent of a compound that is named as a salt.

B1: BMP-7: recombinant human bone morphogenetic protein 7, UniProt P18075 (protein, UniProt P18075 293-431, looked up)
Bone morphogenetic protein 7: STGSKQRSQNRSKTPKNQEALRMANVAENSSSDQRQACKKHELYVSFRDLGWQDWIIAPEGYAAYYCEGECAFPLNSYMNATNHAIVQTLVHFINPETVPKPCCAPTQLNAISVLYFDDSSNVILKKYRNMVVRACGCH

Tests used:
[1] = tested on: CD31-cells (brown adipocyte progenitors); assay: Quantification of UCP1 protein by immunohistochemistry (IHC); type: cell-based, human; conditions: total intensity of UCP1 signal normalized to cell number
Experimental: Differentiation of brown adipocyte progenitors into brown adipocytes can be detected through quantification of UCP1 protein by immunohistochemistry (IHC).
Culturing and differentiation of CD31-cells into brown adipocytes were performed using adipogenic differentiation medium lacking (Minimal Differentiation Medium, MDM) or containing 1 μM rosiglitazone (Reference Differentiation Medium, RDM). After 15 days of differentiation cells were fixed with 4% Paraformaldehyde PBS pH 7.4, and incubated with a UCP1 antibody (Abcam ab23841) and Alexafluor 488 goat anti-rabbit antibody to quantify relative UCP1 levels (green) according to standard protocols. Prior to fixation of cells, nuclei were labeled with 5 μM DAPI (blue) for 10 minutes. Each treatment condition was evaluated in triplicate in a 96-well plate corresponding to approximately 360-480 cells for each data point in total. The InCell 1000 Developer Toolbox software was used to develop an automated cell detection script to measure UCP1 signal intensity, using the nuclei and cytoplasm detection algorithms. As a readout, total intensity of UCP1 signal within the cell was used, normalized to cell number.

CD31-cells = assay: Light microscopic photos of cell morphology, brown adipocyte differentiation; type: cell-based, human; conditions: FIGS. 23A-23H
Experimental: (§1) Cells were seeded at 10,000 per cm^2 in 0.2% gelatin coated plates (48-well tissue culture, Chemglass #CLS-3500-048), cultured until confluency (2-4 days) at 37° C. in Endothelial cell growth medium-2 (EGM2) (BulletKit growth medium, Lonza #CC-3162) and until differentiation (10-16 more days). After 2 or 3 days in EGM2 medium the cells were induced to differentiate by replacing the medium with an adipogenic medium, which is a modification of the adipogenic medium described by Rodriguez et al. and may or may not contain a differentiation inducing agent (e.g., PPARγ agonist). The MDM described above contains: DMEM/Ham's F-12 50/50 Mix (3.151 g/l, 17.5 mM D-glucose, 3.651 g/l L-glutamine) (Cellgro #10-090-CV), 5 μg/ml (0.86 μM) insulin, 1 μM dexamethasone, 100 μM 3-isobutyl-1-methylxanthine, 0.2 nM 3,3′,5-triiodo-L-thyronine, 10 μg/ml (127 nM) transferrin, and 1% penicillin-streptomycin. If rosiglitazone is used as a differentiation-inducing agent, it can be supplied at 1 μM or any other concentration sufficient to induce differentiation of BAT progenitor cells into adipocytes.
Pictures of cells were taken using a hand-held digital camera (Nikon Coolpix 950) and inverted microscope (Nikon TMS) used for cell culture observations; images were optimized using Adobe Photoshop Elements 8 functions for Auto Contrast and Auto Levels.

[2] = tested on: CD31-cells (BAT progenitor cells isolated from human skeletal muscle); assay: Quantification of UCP1 and PPARγ2 mRNA (normalized to cyclophilin A) by multiplexed TaqMan real-time PCR to quantify differentiation into brown adipocytes; type: cell-based
Text: A robust method, previously disclosed in WO2013071063 and incorporated herein by reference, was used for detection of CD31-cell differentiation into brown adipocytes by simultaneously quantifying mRNA species corresponding to the brown adipocyte marker UCP1, the adipocyte marker PPARγ2, and the “housekeeping” gene cyclophilin A which was used as the internal control.
This method permits analysis of a large number of samples to identify agents that enhance the differentiation of CD31-cells into brown adipocytes. When differentiated into brown adipocytes CD31-cells express much higher levels of UCP1 and PPARγ2 mRNA for a given level of cyclophilin A. UCP1 and PPARγ2 mRNA levels normalized to cyclophilin A mRNA levels give an indication of the level of differentiation of the CD31-cells into brown adipocytes, independent of the total number of cells in the sample.
Quantification of UCP1, PPARγ2 and cyclophilin A mRNA by multiplexed TaqMan real-time PCR was thus used to quantify differentiation of the CD31-cells into brown adipocytes.
as §1, with “The MDM described above contains: DMEM/Ham's F-12 50/50 Mix (3.151 g/l, 17.5 mM D-glucose, 3.651 g/l L-glutamine) (Cellgro #10-090-CV), 5 μg/ml (0.86 μM) insulin, 1 μM dexamethasone, 100 μM 3-isobutyl-1-methylxanthine, 0.2 nM 3,3′,5-triiodo-L-thyronine, 10 μg/ml (127 nM) transferrin, and 1% penicillin-streptomycin.” left out
Total RNA was prepared from cells using PureLink RNA Isolation Kit (Invitrogen #12183-016) First strand cDNA were synthesized using the High Capacity cDNA Reverse Transcription kit (Applied Biosystems, Foster City, Calif.) and random primers.
Quantitative real-time PCR was performed using an Applied Biosystems StepOnePlus™ instrument, TaqMan Gene Expression Master Mix (Applied Biosystems #4369016), and custom TaqMan gene expression probes and primers for human uncoupling protein-1 “UCP1” (GenBank NM_021833) and for human peptidylprolyl isomerase A “cyclophilin A” (GenBank NM_021130).
Cyclophilin A was used as a control to account for any variations due to the efficiency of reverse transcription. Arbitrary units were determined by normalizing target mRNA levels to cyclophilin A mRNA levels (based on Cts).

Molecule	UCP1 protein signal (IHC), differentiation of brown adipocyte progenitors into brown adipocytes [1]	brown adipocyte differentiation (light microscopy) (CD31-cells)	differentiation of BAT progenitor cells into brown adipocytes and/or expression of UCP1, PPARγ2 mRNA [2]
O=C(O)c1cc(-c2ccc(F)cc2F)ccc1O [Diflunisal]	identified using this technique	promote brown adipocyte formation	
CCCN(CCC)S(=O)(=O)c1ccc(C(=O)O)cc1 [Probenecid]	identified using this technique	promote brown adipocyte formation	
CCOC(=O)Oc1c(OC)cc(C(=O)O[C@@H]2C[C@@H]3CN4CCc5c([nH]c6cc(OC)ccc56)[C@H]4C[C@@H]3[C@H](C(=O)OC)[C@H]2OC)cc1OC [Syrosingopine]	identified using this technique	promote brown adipocyte formation	
CCN(CC)CCNC(=O)c1cc(S(C)(=O)=O)ccc1OC [Tiapride hydrochloride]	identified using this technique	promote brown adipocyte formation	
O=c1c(O)c(-c2ccc(O)cc2)oc2cc(O)cc(O)c12 [kaempferol]		promote brown adipocyte formation	promote the differentiation of BAT progenitor cells into brown adipocytes and/or induce the expression of UCP1
B1		promote brown adipocyte formation	promote the differentiation of BAT progenitor cells into brown adipocytes and/or induce the expression of UCP1
